Biological target: phosphodiesterase IX (Homo sapiens (Human), UniProt O76083)
Assay: Inhibition activity to the phosphodiesterase IX
Type: biochemical
Conditions: concentration of the inhibitor when the inhibition rate reaches 50%
Description: Inhibition activities of all the N-substituted pyrazolo [3,4-d] pyrimidine ketone compounds according to the present invention to the phosphodiesterase IX are tested.

Chain of phosphodiesterase IX (O76083 whole entry): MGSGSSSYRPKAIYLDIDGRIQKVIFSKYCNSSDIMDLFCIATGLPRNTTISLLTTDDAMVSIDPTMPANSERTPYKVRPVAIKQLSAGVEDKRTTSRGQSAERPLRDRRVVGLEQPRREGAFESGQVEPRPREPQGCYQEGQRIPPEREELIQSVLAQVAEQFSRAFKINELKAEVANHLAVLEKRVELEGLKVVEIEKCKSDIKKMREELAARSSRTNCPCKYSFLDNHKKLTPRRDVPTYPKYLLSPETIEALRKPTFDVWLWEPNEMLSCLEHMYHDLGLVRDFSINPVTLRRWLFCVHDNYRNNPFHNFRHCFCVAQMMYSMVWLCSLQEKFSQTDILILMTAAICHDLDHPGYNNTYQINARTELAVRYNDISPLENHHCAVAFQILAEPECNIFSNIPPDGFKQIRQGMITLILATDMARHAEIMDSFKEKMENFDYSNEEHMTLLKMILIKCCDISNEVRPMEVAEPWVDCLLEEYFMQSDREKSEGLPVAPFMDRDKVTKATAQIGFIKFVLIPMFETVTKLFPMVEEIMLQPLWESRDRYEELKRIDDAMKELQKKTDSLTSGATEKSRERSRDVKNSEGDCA

- IC50: 6 nM
SMILES: COc1ccc(NC(=O)C(C)Nc2nc3c(cnn3-c3ccccc3Cl)c(=O)[nH]2)cc1 (stereo not shown) [WYQ-94-D]

Source: patent US9617269B2
